Laboratory results published in paper PMC9072250 (Acta Pharmaceutica Sinica. B, 2021).
Structures can show the parent of a compound that is named as a salt.

Assays:
[1] = test system: monocrotaline-induced PAH rat model; experiment: Monocrotaline-induced PAH rat model; assay type: in vivo, Wister rats; settings: PAH rats, 10.0 mg/kg (po) daily for 3 weeks, positive control
PDE6A = PDE6A versus PDE5A1; cited from earlier work

Compound	mean pulmonary artery pressure (mPAP) [1]	right ventricle hypertrophy index (RVHI%) [1]	wall thickness percentage (WT%) [1]	IC50 potency against PDE6A relative to PDE5A1 (PDE6A) [fold]
CCCc1nn(C)c2c(=O)[nH]c(-c3cc(S(=O)(=O)N4CCN(C)CC4)ccc3OCC)nc12 [sildenafil citrate]	decreased significantly	decreased significantly	decreased significantly	–
CCCc1nn(C)c2c(=O)[nH]c(-c3cc(S(=O)(=O)N4CCN(C)CC4)ccc3OCC)nc12 [sildenafil]	–	–	–	5
